Laboratory results reported in patent US20120107323A1, “KINASE PROTEIN BINDING INHIBITORS” (University of Florida, priority 2009, published 2012).

Key:
A375 melanoma cells = test: Cell viability (MTT), A375; assay type: cell-based, human
Method: Cell viability (MTT) and CFSE Proliferation assay: Cells were plated in 96-well plates and let adhere overnight. After cell treatment, cell viability was measured by 3-(4,5-dimethylthiazol-2-yl)-2,5-diphenyl tetrazolium bromide (MTT) assay (CellTiter 96® Aqueous, Promega, Madison, Wis.).
Cell viability and detachment assays: After cells were treated with siRNA transfection, cell viability was measured by 3-(4,5-dimethylthiazol2-yl)-2,5-diphenyl tetrazolium bromide (MTT) assay (CellTiter 96® AQueous, Promega, Madison, Wis.). Briefly, 20 μl of the tetrazolium compound was added to each well. The cells were then incubated at 37° C. for 1 h. The plate was read at 490 nm with a plate reader to determine the viability. In detachment assays, detached and attached cells were harvested separately and counted in a hemocytometer. The percentage of detachment was calculated by dividing the number of detached cells by the total number of cells. Apoptosis assays: After treatment, attached and detached cells were collected, counted and prepared for terminal uridine deoxynucleotidyl transferase (TUNEL) assay by utilizing an APO-BRDU kit (BD Pharmingen, San Diego, Calif.) according to the manufacturer's instructions. Stained cells were analyzed with a fluorescence-activated cell sorting-Calibur flow cytometer (BD Biosciences). Calculation of the percentage of apoptotic cells in the sample was completed with CellQuest software (BD Biosciences). Apoptotic cells were also analyzed by Hoechst staining. Hoechst 33342 ([…]) was added to the fixed cells and the specimens were mounted on glass coverslips. The slides were viewed under the Zeiss microscope for apoptotic nuclei. The percent of apoptotic cells was calculated as the ratio of apoptotic cells to total number of cells.
In addition, the effect of INT2-31 on cell viability of esophageal, pancreatic and breast cancer cell lines was analyzed and the IC50 value for each cell line was determined, as shown in Table 1. […] Similar to melanoma results, INT2-31 inhibits viability more in cancer cells compared to normal cells. […]

FAK = FAK (Homo sapiens, UniProt Q05397); test: Kinase profiler screening, FAK; assay type: biochemical; settings: 1 μM compound, 10 μM ATP
Method: Kinase Profiler Screening: Kinase specificity screening was performed with Invitrogen's SelectScreen® Kinase Profiling Services http://www.invitrogen.com/site/us/en/home/Products-and-Services/Services/Discoverv-Research/SelectScreen-Profiling-Service/SelectScreen-Kinase-Profiling-Service.html. The screening was performed with 1 μM compound, INT2-31, 10 μM ATP, and kinase substrates against ten recombinant kinases according to Z′-LYTET™ Kinase Assay. For PI3 kinase activity, 100 μM ATP, and kinase substrate were utilized with the Invitrogen Adapta® Universal Kinase Assay protocol. Tumor Growth in Nude Mice in vivo: Six week old athymic, female nude mice were purchased from Harlan Laboratory. The mice were maintained in the animal facility, and all experiments were performed in compliance with NIH animal-use guidelines and under an IACUC approved protocol. Melanoma cells were injected, 5×10^6 cells, subcutaneously. When the tumor size reached 100 mm^3, the INT2-31 was introduced by intraperitoneal injection at a dose of 15 mg/kg daily for 21 days. Tumor diameters were measured with calipers, and tumor volume in mm^3 was calculated using the formula [(width)^2×length]/2. At the end of experiment, tumor weight and volume were determined.

Chain of FAK (Q05397 whole entry): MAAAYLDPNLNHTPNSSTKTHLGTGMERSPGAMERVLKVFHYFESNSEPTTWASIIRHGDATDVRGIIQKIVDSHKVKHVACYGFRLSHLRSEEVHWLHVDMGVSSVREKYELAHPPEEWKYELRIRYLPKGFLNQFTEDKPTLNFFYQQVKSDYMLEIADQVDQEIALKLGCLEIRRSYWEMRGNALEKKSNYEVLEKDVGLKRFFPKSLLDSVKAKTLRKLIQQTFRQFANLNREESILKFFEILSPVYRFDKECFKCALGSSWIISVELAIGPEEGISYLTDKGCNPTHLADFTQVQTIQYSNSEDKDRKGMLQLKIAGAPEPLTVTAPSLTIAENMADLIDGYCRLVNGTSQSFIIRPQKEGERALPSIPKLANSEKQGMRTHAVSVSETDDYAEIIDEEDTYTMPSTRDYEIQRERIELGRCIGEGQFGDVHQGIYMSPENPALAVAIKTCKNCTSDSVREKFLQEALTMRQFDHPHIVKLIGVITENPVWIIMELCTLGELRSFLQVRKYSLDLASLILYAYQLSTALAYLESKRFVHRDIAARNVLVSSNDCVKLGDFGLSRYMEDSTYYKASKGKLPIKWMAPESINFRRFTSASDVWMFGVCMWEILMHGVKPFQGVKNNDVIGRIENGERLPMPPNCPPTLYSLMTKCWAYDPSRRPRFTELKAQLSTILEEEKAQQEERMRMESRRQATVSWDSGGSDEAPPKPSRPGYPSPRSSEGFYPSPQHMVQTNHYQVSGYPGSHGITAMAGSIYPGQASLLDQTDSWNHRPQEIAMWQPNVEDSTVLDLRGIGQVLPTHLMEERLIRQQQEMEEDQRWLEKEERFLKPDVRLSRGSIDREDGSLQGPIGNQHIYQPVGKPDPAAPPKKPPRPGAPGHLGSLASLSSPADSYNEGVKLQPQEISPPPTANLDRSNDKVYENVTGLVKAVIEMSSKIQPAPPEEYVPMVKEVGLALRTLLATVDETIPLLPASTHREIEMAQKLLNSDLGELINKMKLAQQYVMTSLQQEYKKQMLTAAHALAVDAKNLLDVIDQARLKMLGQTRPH

CSc1ncnc2c1ccn2C1O[C@H](COP(=O)(O)O)[C@@H](O)[C@H]1O (stereo partly drawn) [INT2-31, 4-(Methylthio)-7-(5-O-phosphono-D-ribofuranosyl)-{7H-Pyrrolo[2,3-d]pyrimidine}]
cell viability (in words) (A375 melanoma cells; A375, MTT): inhibited cell viability in a dose-dependent manner | IC50 (A375 melanoma cells; Homo sapiens, A-375, A375, 72 hours, read-out: IC50 of INT2-31, cell viability): 2700 nM | kinase activity of FAK (FAK): did not inhibit
